Measurements from patent publication US9746484B2, “Binding partners specific for vitamin D epimers in vitamin D assays” (Siemens Healthcare Diagnostics Inc., priority 2014, dated 2017).
Several values for one entry are separate records, joined by “and”; a condition that tells them apart may be missing. Equal entries are not always repeated.

System: biotinylated monoclonal anti-25OH vitamin D antibody
Assay: LOCI 25(OH)D immunoassay, 3-epimer cross-reactivity without blocking antibody
Format: binding, sheep
Conditions: no anti-3-epimer antibody; for Avg. Cross-reactivity, No anti-3-epimer VD Ab Added: average of ten patient sera spiked with 100 ng/mL 3-epimer vitamin D3
Description: The 25OH Vitamin D (25(OH)D) immunoassay format employed was a homogeneous competitive chemiluminescent immunoassay based on LOCI® assay technology. The assay was performed on the Siemens Dimension® EXL automated integrated clinical chemistry system (Siemens Healthcare Diagnostics Inc., Deerfield, Ill.). The assay measured the total concentration of 25(OH)D2 and/or 25(OH)D3 in serum and plasma samples. The LOCI® assay reagents included a releasing reagent, two synthetic bead reagents and a biotinylated monoclonal anti-25OH vitamin D antibody reagent. The first bead reagent (designated “Sensibeads”) was coated with streptavidin and contained a photosensitive dye. The second bead reagent (designated “Chemibeads”) was coated with a 25(OH)D3 analog and contained chemiluminescent dye. Sample was incubated with the releasing reagent to release 25(OH)D molecules including 3-epimeric compounds from vitamin D binding proteins. The reaction mixture was then incubated with biotinylated antibody to form a 25(OH)D-biotinylated antibody complex. […] Chemibeads were added to bind excess free biotinylated antibody. Sensibeads were then added to bind to the biotin portion of the biotinylated antibody. Aggregates of Chemibead-analog/antibody-biotin/streptavidin-Sensibeads were formed as a result. Illumination of the reaction mixture with light at 680 nm generates singlet oxygen from Sensibeads, which diffused into the Chemibeads and triggered a chemiluminescent reaction. The resulting chemiluminescent signal was measured at 612 nm and is inversely proportional to the concentration of total 25(OH)D in the sample.
The effect of adding anti-3-epimer-VD antibody 8F10.1 (anti-3-epimer VD Ab) on the 3-epimer cross-reactivity for the assay is shown in Table 1. […] The 3-epimer cross-reactivity was calculated by the difference between 25(OH)D2 or 25(OH)D3 values with and without the spiked 3-epimer compound divided by the amount of added 3-epimer compound.

`C=C1CC[C@@H](O)C/C1=C/C=C1\CCC[C@]2(C)[C@@H]([C@H](C)CCCC(C)(C)O)CC[C@@H]12` [3-epimer D3, 3-epi-25-hydroxyvitamin D3] was tested, and the “Avg. Cross-reactivity, No anti-3-epimer VD Ab Added” value was 13.7%, the “Avg. Cross-reactivity, No anti-3-epimer VD Ab Added” value (listed as 3-epimer vitamin D3 compound) was 13.7% and the “3-epimer Cross-Reactivity, No anti-3-epimer VD Ab Added” value (individual patient sera (Sample ID 1-10) spiked with 100 ng/mL 3-epimer vitamin D3) was 17.9% (2×) and 11.9% and 12.6% and 16.1% and 10.2% and 9.1% and 10.5% and 15.3% and 15.5%.
